Data: patent US8541474B2 (Hanall Biopharma Co., Ltd., priority 2007, dated 2013)
Structures can show the parent of a compound that is named as a salt.

Tests used:
Human being = details: Oral; cited from earlier work
Mouse = details: Intraperitoneal; cited from earlier work
[1] = tested on: diabetes mellitus induced experimental animal; assay: Effect of drop in blood glucose level in diabetes mellitus induced (alloxan) rats; assay type: in vivo; details: for glucose concentration in blood: 0.05 mg as metformin, peritoneally
Text: This test supports the effect of the present invention.

male ICR mice = assay: Test of drop in blood glucose after meal (OGTT with sucrose load); assay type: in vivo; details: for effect of drop in blood glucose compared to G8 (excipient control): 20 minutes after administration of sucrose
[2] = Measurement of hygroscopicity; assay type: physicochemical; details: 95% RH, 25° C.
[3] = 100 mg/kg oral, 0 min after sucrose 2 g/kg
[4] = 100 mg/kg oral, 40 min after sucrose 2 g/kg
[5] = 100 mg/kg oral, 60 min after sucrose 2 g/kg
[6] = 100 mg/kg oral, 90 min after sucrose 2 g/kg
[7] = 100 mg/kg oral, 120 min after sucrose 2 g/kg
[8] = 100 mg/kg oral, 240 min after sucrose 2 g/kg
[9] = 200 mg/kg oral, 0 min after sucrose 2 g/kg
[10] = 200 mg/kg oral, 20 min after sucrose 2 g/kg
[11] = 200 mg/kg oral, 40 min after sucrose 2 g/kg
[12] = 200 mg/kg oral, 60 min after sucrose 2 g/kg
[13] = 200 mg/kg oral, 90 min after sucrose 2 g/kg
[14] = 200 mg/kg oral, 120 min after sucrose 2 g/kg
[15] = 200 mg/kg oral, 240 min after sucrose 2 g/kg
[16] = 400 mg/kg oral, 0 min after sucrose 2 g/kg
[17] = 400 mg/kg oral, 20 min after sucrose 2 g/kg
[18] = 400 mg/kg oral, 40 min after sucrose 2 g/kg
[19] = 400 mg/kg oral, 60 min after sucrose 2 g/kg
[20] = 400 mg/kg oral, 90 min after sucrose 2 g/kg
[21] = 400 mg/kg oral, 120 min after sucrose 2 g/kg
[22] = 400 mg/kg oral, 240 min after sucrose 2 g/kg

Q: For `CC(=O)O` [Acetic acid], which “Dose (TDLo)” value (Human being) is on record?
A: The value was 1,470 μg/kg.

Q: For `Cl` [Hydrochloric acid], which “Dose (LD50)” value (Mouse) is on record?
A: Its value is 40 mg/kg.

Q: Which “decrease of glucose concentration versus control group” value ([1]; 10 hours after administration) does the source give for `CC(=O)O.CN(C)C(=N)NC(=N)N` [Metformin acetate, N,N-dimethyl imidodicarbonimidic diamide acetate] here?
A: Its value is “about 7.5 mmol/L”.

Q: And the “effect of drop in blood glucose compared with metformin hydrochloride” value ([1]; alloxan rats)?
A: The value was “more excellent than that of metformin hydrochloride”.

Q: And the “glucose concentration in blood” value ([1]; alloxan rats, 0 hours)?
A: The value was 13.8 mmol/L.

Q: What about the “glucose concentration in blood” value ([1]; alloxan rats, 2 hours) of the same molecule?
A: Its value is 6.4 mmol/L.

Q: And the “glucose concentration in blood” value ([1]; alloxan rats, 4 hours)?
A: The value was 7.5 mmol/L.

Q: What about the “glucose concentration in blood” value ([1]; alloxan rats, 6 hours) of the same molecule?
A: Its value is 6.8 mmol/L.

Q: What about the “glucose concentration in blood” value ([1]; alloxan rats, 8 hours) of the same molecule?
A: Its value is 5.9 mmol/L.

Q: What about the “glucose concentration in blood” value ([1]; alloxan rats, 10 hours) of the same molecule?
A: The value was 6.9 mmol/L.

Q: And the “effect of drop in blood glucose” value (male ICR mice; 100 mg/kg (G2), 240 minutes)?
A: The value was “effect of drop in blood glucose could be observed”.

Q: What about the “glucose concentration in blood” value (male ICR mice; [3]) of the same molecule?
A: Its value is 101.63 ± 4.94 mg/dL.

Q: What about the “glucose concentration in blood” value (male ICR mice; [4]) of the same molecule?
A: Its value is 212.00 ± 15.68 mg/dL.

Q: And the “glucose concentration in blood” value (male ICR mice; [5])?
A: The value was 170.75 ± 17.38 mg/dL.

Q: And the “glucose concentration in blood” value (male ICR mice; [6])?
A: The value was 134.50 ± 15.64 mg/dL.

Q: What about the “glucose concentration in blood” value (male ICR mice; [7]) of the same molecule?
A: The value was 106.63 ± 10.44 mg/dL.

Q: And the “glucose concentration in blood” value (male ICR mice; [8])?
A: Its value is 63.63 ± 4.94 mg/dL.

Q: What about the “effect of drop in blood glucose” value (male ICR mice; 200 mg/kg (G3), 120 minutes) of the same molecule?
A: The value was “effect of drop in blood glucose could be observed”.

Q: And the “effect of drop in blood glucose” value (male ICR mice; 200 mg/kg (G3), 240 minutes)?
A: The value was “effect of drop in blood glucose could be observed”.

Q: And the “effect of drop in blood glucose compared to G8 (excipient control)” value (“effect … compared to G8 (excipient control)” for short) (male ICR mice; 200 mg/kg (G3, G6))?
A: Its value is “effect of drop in blood glucose could be observed”.

Q: What about the “glucose concentration in blood” value (male ICR mice; [9]) of the same molecule?
A: Its value is 101.63 ± 4.58 mg/dL.

Q: And the “glucose concentration in blood” value (male ICR mice; [10])?
A: The value was 213.13 ± 11.36 mg/dL.

Q: What about the “glucose concentration in blood” value (male ICR mice; [11]) of the same molecule?
A: The value was 201.00 ± 21.78 mg/dL.

Q: What about the “glucose concentration in blood” value (male ICR mice; [12]) of the same molecule?
A: The value was 165.75 ± 15.91 mg/dL.

Q: What about the “glucose concentration in blood” value (male ICR mice; [13]) of the same molecule?
A: The value was 129.63 ± 8.08 mg/dL.

Q: And the “glucose concentration in blood” value (male ICR mice; [14])?
A: Its value is 106.38 ± 4.07 mg/dL.

Q: And the “glucose concentration in blood” value (male ICR mice; [15])?
A: Its value is 80.00 ± 3.73 mg/dL.

Q: What about the “effect … compared to G8 (excipient control)” value (male ICR mice; 400 mg/kg (G4, G7)) of the same molecule?
A: Its value is “effect of drop in blood glucose could be observed”.

Q: What about the “glucose concentration in blood” value (male ICR mice; [16]) of the same molecule?
A: The value was 104.13 ± 6.53 mg/dL.

Q: What about the “glucose concentration in blood” value (male ICR mice; [17]) of the same molecule?
A: The value was 190.25 ± 16.05 mg/dL.

Q: And the “glucose concentration in blood” value (male ICR mice; [18])?
A: The value was 169.63 ± 21.19 mg/dL.

Q: And the “glucose concentration in blood” value (male ICR mice; [19])?
A: Its value is 141.50 ± 18.24 mg/dL.

Q: And the “glucose concentration in blood” value (male ICR mice; [20])?
A: Its value is 106.38 ± 13.75 mg/dL.

Q: What about the “glucose concentration in blood” value (male ICR mice; [21]) of the same molecule?
A: Its value is 86.25 ± 11.25 mg/dL.

Q: And the “glucose concentration in blood” value (male ICR mice; [22])?
A: The value was 69.25 ± 7.96 mg/dL.

Q: And the “effect of drop in blood glucose compared with metformin hydrochloride” value (male ICR mice; 200 and 400 mg/kg dosage group, 20 to 60 minutes after administration of sucrose)?
A: Its value is “higher effect of drop in blood glucose than that of the metformin hydrochloride”.

Q: What about the “effect of drop in blood glucose after meal compared with metformin hydrochloride” value (male ICR mice; overall inference from Table 11) of the same molecule?
A: The value was “more excellent than that of the metformin hydrochloride”.

Q: And the “hygroscopicity compared with metformin hydrochloride” value [2]?
A: Its value is “lower than that of the metformin hydrochloride”.

Q: What about the Hygroscopicity ([2]; 1 day) of the same molecule?
A: The Hygroscopicity was 0.35%.

Q: What about the Hygroscopicity ([2]; 2 days) of the same molecule?
A: Its Hygroscopicity is 0.93%.

Q: What about the Hygroscopicity ([2]; 3 days) of the same molecule?
A: The Hygroscopicity was 1.37%.

Q: What about the Hygroscopicity ([2]; 6 days) of the same molecule?
A: Its Hygroscopicity is 11.21%.

Q: And the Hygroscopicity ([2]; 9 days)?
A: Its Hygroscopicity is 23.32%.

Q: With `CN(C)C(=N)N=C(N)N` [Metformin hydrochloride, metformin hydrochloride, reference compound] as the molecule, how does the “glucose concentration in blood” value ([1]; alloxan rats, 0 hours) read?
A: The value was 13.8 mmol/L.

Q: What about the “glucose concentration in blood” value ([1]; alloxan rats, 2 hours) of the same molecule?
A: Its value is 7.8 mmol/L.

Q: What about the “glucose concentration in blood” value ([1]; alloxan rats, 4 hours) of the same molecule?
A: Its value is 6.4 mmol/L.

Q: And the “glucose concentration in blood” value ([1]; alloxan rats, 6 hours)?
A: The value was 8.6 mmol/L.

Q: And the “glucose concentration in blood” value ([1]; alloxan rats, 8 hours)?
A: The value was 7.9 mmol/L.

Q: What about the “glucose concentration in blood” value ([1]; alloxan rats, 10 hours) of the same molecule?
A: Its value is 9.4 mmol/L.

Q: What about the “glucose concentration in blood” value (male ICR mice; [3]) of the same molecule?
A: Its value is 104.00 ± 6.53 mg/dL.

Q: What about the “glucose concentration in blood” value (male ICR mice; 100 mg/kg oral, 20 min after sucrose 2 g/kg) of the same molecule?
A: Its value is 246.00 ± 16.70 mg/dL.

Q: What about the “glucose concentration in blood” value (male ICR mice; [4]) of the same molecule?
A: The value was 194.38 ± 8.02 mg/dL.

Q: What about the “glucose concentration in blood” value (male ICR mice; [5]) of the same molecule?
A: Its value is 151.50 ± 5.45 mg/dL.

Q: What about the “glucose concentration in blood” value (male ICR mice; [6]) of the same molecule?
A: Its value is 122.38 ± 4.69 mg/dL.

Q: What about the “glucose concentration in blood” value (male ICR mice; [7]) of the same molecule?
A: Its value is 111.75 ± 6.45 mg/dL.

Q: And the “glucose concentration in blood” value (male ICR mice; [8])?
A: Its value is 83.63 ± 3.49 mg/dL.

Q: And the “effect … compared to G8 (excipient control)” value (male ICR mice; 200 mg/kg (G3, G6))?
A: Its value is “effect of drop in blood glucose could be observed”.

Q: And the “glucose concentration in blood” value (male ICR mice; [9])?
A: Its value is 107.13 ± 2.84 mg/dL.

Q: And the “glucose concentration in blood” value (male ICR mice; [10])?
A: The value was 227.50 ± 20.57 mg/dL.

Q: What about the “glucose concentration in blood” value (male ICR mice; [11]) of the same molecule?
A: The value was 187.25 ± 15.16 mg/dL.

Q: And the “glucose concentration in blood” value (male ICR mice; [12])?
A: Its value is 147.25 ± 9.89 mg/dL.

Q: What about the “glucose concentration in blood” value (male ICR mice; [13]) of the same molecule?
A: The value was 121.25 ± 8.15 mg/dL.

Q: What about the “glucose concentration in blood” value (male ICR mice; [14]) of the same molecule?
A: The value was 106.75 ± 5.65 mg/dL.

Q: And the “glucose concentration in blood” value (male ICR mice; [15])?
A: The value was 87.13 ± 4.50 mg/dL.

Q: And the “effect … compared to G8 (excipient control)” value (male ICR mice; 400 mg/kg (G4, G7))?
A: Its value is “effect of drop in blood glucose could be observed”.

Q: And the “glucose concentration in blood” value (male ICR mice; [16])?
A: The value was 104.75 ± 3.98 mg/dL.

Q: And the “glucose concentration in blood” value (male ICR mice; [17])?
A: Its value is 187.38 ± 10.32 mg/dL.

Q: And the “glucose concentration in blood” value (male ICR mice; [18])?
A: The value was 167.63 ± 7.04 mg/dL.

Q: And the “glucose concentration in blood” value (male ICR mice; [19])?
A: Its value is 135.63 ± 5.53 mg/dL.

Q: What about the “glucose concentration in blood” value (male ICR mice; [20]) of the same molecule?
A: Its value is 110.50 ± 4.78 mg/dL.

Q: And the “glucose concentration in blood” value (male ICR mice; [21])?
A: The value was 87.88 ± 9.90 mg/dL.

Q: What about the “glucose concentration in blood” value (male ICR mice; [22]) of the same molecule?
A: Its value is 64.38 ± 7.69 mg/dL.

Q: What about the Hygroscopicity ([2]; 1 day) of the same molecule?
A: Its Hygroscopicity is 6.29%.

Q: What about the Hygroscopicity ([2]; 2 days) of the same molecule?
A: Its Hygroscopicity is 11.86%.

Q: What about the Hygroscopicity ([2]; 3 days) of the same molecule?
A: The Hygroscopicity was 23.3%.

Q: What about the Hygroscopicity ([2]; 6 days) of the same molecule?
A: The Hygroscopicity was 60.33%.

Q: And the Hygroscopicity ([2]; 9 days)?
A: The Hygroscopicity was 68.78%.
